Laboratory results: the RepoRT retention time repository (doi:10.1007/s00216-021-03828-0)
Structures can show the parent of a compound that is named as a salt.

Assays:
Conditions in all cases: stereoisomer not certain
[1] = RP, Merck Supelco Ascentis Express C18, 100 × 2.1 mm, 2 µm, 40 °C, 0.2 mL/min, estimated dead time 1.1 min; A: water + 0.1% formic acid, pH 3; B: acetonitrile + 0.1% formic acid, pH 3; gradient (min/%B) 0/5 2/5 17/99.9 20/99.9
[2] = RP, Merck Supelco Ascentis Express C18, 100 × 2.1 mm, 2 µm, 40 °C, 0.4 mL/min, estimated dead time 0.55 min; A: water + 0.1% formic acid, pH 3; B: acetonitrile + 0.1% formic acid, pH 3; gradient (min/%B) 0/5 2/5 17/99.9 20/99.9
[3] = as above; remark: listed apart in the source
[4] = RP, Merck Supelco Ascentis Express C18, 100 × 2.1 mm, 2 µm, 40 °C, 0.25 mL/min, estimated dead time 0.88 min; A: water + 0.1% formic acid, pH 3; B: acetonitrile + 0.1% formic acid, pH 3; gradient (min/%B) 0/5 2/5 17/99.9 20/99.9
[5] = RP, Merck Supelco Ascentis Express C18, 100 × 2.1 mm, 2 µm, 40 °C, 0.35 mL/min, estimated dead time 0.63 min; A: water + 0.1% formic acid, pH 3; B: acetonitrile + 0.1% formic acid, pH 3; gradient (min/%B) 0/5 2/5 17/99.9 20/99.9
[6] = RP, Merck Supelco Ascentis Express C18, 100 × 2.1 mm, 2 µm, 40 °C, 0.2 mL/min, estimated dead time 1.1 min; A: water + 0.1% formic acid, pH 3; B: acetonitrile + 0.1% formic acid, pH 3; gradient (min/%B) 0/5 2/5 17/99.9 20/99.9; remark: listed apart in the source
[7] = RP, Merck Supelco Ascentis Express C18, 100 × 2.1 mm, 2 µm, 39 °C, 0.3 mL/min, estimated dead time 0.73 min; A: water + 0.1% formic acid, pH 3; B: acetonitrile + 0.1% formic acid, pH 3; gradient (min/%B) 0/5 2/5 17/99.9 20/99.9

SMILES | LC retention time [1] | LC retention time [2] | LC retention time [3] | LC retention time [4] | LC retention time [5] | LC retention time [6] | LC retention time [7]
CCCCCCCCCCCCCCCCC(=O)O [HEPTADECANOATE] | 18.5 min | 16.4 min | 16.3 min | 17.7 min | 16.7 min | – | –
Nc1nc2c(ncn2C2OC(COP(=O)(O)OP(=O)(O)OC3OC(CO)C(O)C(O)C3O)C(O)C2O)c(=O)[nH]1 (stereo not drawn) [GUANOSINE DIPHOSPHATE MANNOSE] | – | – | – | – | 0.757 min | – | –
CCCCCCCCCCCCCCCCCCCC(=O)O [ARACHIDATE] | – | – | 17.9 min | – | 18.3 min | – | –
CC(O)(CCO)CC(=O)[O-] (stereo not drawn) [MEVALONATE] | 1.55 min | 0.72 min | 0.73 min | 1.2 min | 0.863 min | 1.57 min | –
O=S(=O)(O)Oc1c[nH]c2ccccc12 [INDOXYL SULFATE] | – | – | 3.2 min | – | 3.57 min | – | –
Nc1ccc(C(=O)O)cc1 [4-AMINOBENZOATE] | 5.87 min | – | 3.93 min | – | 4.3 min | – | –
OCC(O)C(O)CO (stereo not drawn) [ERYTHRITOL] | – | – | 0.87 min | – | 0.997 min | – | –
c1ncc2[nH]cnc2n1 [PURINE] | 1.34 min | – | – | 1.07 min | 0.757 min | 1.35 min | –
CC(O)(CC(=O)O)C(=O)O (stereo not drawn) [CITRAMALATE] | 1.49 min | 0.76 min | 0.717 min | – | 0.86 min | – | –
CCCCCCCCC=CCCCCCCCC(=O)O [ELAIDATE] | 18.2 min | 16.1 min | 16 min | – | 16.4 min | 18.1 min | 16.8 min
COC(=O)CCCC(=O)O [MONOMETHYLGLUTARATE] | 3.99 min | – | 2.02 min | – | 2.33 min | – | –
CC1NCCc2cc(O)c(O)cc21 (stereo not drawn) [SALSOLINOL] | 1.44 min | – | 0.68 min | – | 0.82 min | – | –
CCC=CCC=CCC=CCC=CCC=CCC=CCCC(=O)O [DOCOSAHEXAENOATE] | 16.5 min | 14.5 min | 14.5 min | 15.8 min | 14.8 min | – | –
Nc1ccccc1C(=O)CC(N)C(=O)O (stereo not drawn) [KYNURENINE] | – | – | 1.05 min | – | – | – | –
CCCCCC=CCC=CCC=CCCCCC(=O)O [GAMMA-LINOLENATE] | 16.2 min | – | 14.1 min | – | 14.5 min | – | –
CCCCCCCCCC(=O)O [DECANOATE] | 12.8 min | 10.8 min | – | 12 min | – | 12.7 min | 11.5 min
CCCCCCCCCC(C)=O [2-UNDECANONE] | 9.69 min | – | 8.13 min | – | 8.4 min | – | –
O=C(O)CCCCC(=O)O [ADIPATE] | 3.99 min | 2.04 min | 2.02 min | 3.27 min | 2.33 min | – | –
Nc1ncnc2c1ncn2C1CC(O)C(CO)O1 (stereo not drawn) [DEOXYADENOSINE] | – | 0.667 min | – | 1.09 min | 0.77 min | 1.38 min | 0.883 min
O=C(O)Cc1c[nH]c2ccccc12 [INDOLE-3-ACETATE] | – | 5.6 min | 5.56 min | 6.63 min | 5.84 min | 7.21 min | 6.2 min
COc1cc(C(O)CO)ccc1O (stereo not drawn) [4-HYDROXY-3-METHOXYPHENYLGLYCOL] | – | – | 1.07 min | – | 1.21 min | – | –
O=C(O)C(O)c1ccc(O)c(O)c1 (stereo not drawn) [3,4 DIHYDROXYMANDELATE] | 1.41 min | – | 0.677 min | – | 0.79 min | – | –
CC(CCC(=O)O)C(=O)O (stereo not drawn) [2-METHYLGLUTARATE] | 3.99 min | 2.05 min | 2.02 min | 3.27 min | 2.33 min | – | –
Nc1nc2c(ncn2C2OC(CO)C(O)C2O)c(=O)[nH]1 (stereo not drawn) [GUANOSINE] | 1.36 min | 0.667 min | – | 1.09 min | 0.757 min | 1.37 min | 0.89 min
CCCCCCCCCCCCCCCCCC(=O)[O-] [STEARATE] | 19.1 min | 16.9 min | 16.9 min | 18.3 min | 17.2 min | – | –

SMILES | LC retention time [1] | LC retention time [2] | LC retention time [3] | LC retention time [4] | LC retention time [5] | LC retention time [6] | LC retention time [7]
CCCCCCCCC=CCCCCCCCCCCCC(=O)O [ERUCATE] | – | – | 17.8 min | – | 18.2 min | – | –
CC(C(=O)O)C(=O)O [METHYLMALONATE] | 1.71 min | 0.863 min | 0.807 min | 1.37 min | 0.957 min | – | –
Oc1ccccc1O [PYROCATECHOL] | – | 1.55 min | 1.52 min | 3.05 min | 1.78 min | – | –
CCCCCCC=CCCCCCCCC(=O)[O-] [PALMITOLEATE] | 16.7 min | 14.6 min | 14.5 min | 15.9 min | – | 16.7 min | 15.3 min
O=Cc1cccc(O)c1 [3-HYDROXYBENZALDEHYDE] | 5.47 min | – | 3.59 min | – | 3.94 min | – | –
OCC(O)c1ccc(O)c(O)c1 (stereo not drawn) [3,4-DIHYDROXYPHENYLGLYCOL] | 1.39 min | – | 0.663 min | – | 0.783 min | – | –
Cc1cn(C2CC(O)C(COP(=O)(O)OP(=O)(O)OC3OC(CO)C(O)C(O)C3O)O2)c(=O)[nH]c1=O [DTDP-D-GLUCOSE] | – | – | 0.667 min | – | – | – | –
CC(C)CC(=O)C(=O)O [KETOLEUCINE] | 4.65 min | – | 0.77 min | – | 0.88 min | – | –
CC(CCC(=O)O)C1CCC2C3CCC4CC(O)CCC4(C)C3CC(O)C12C (stereo not drawn) [DEOXYCHOLATE] | – | – | – | – | 10.8 min | – | –
CCCCCC=CCC=CCCCCCCCC(=O)O [LINOLEATE] | 17 min | 13.1 min | – | – | 15.3 min | – | –
CCCCCCCCC(=O)[O-] [NONANOATE] | 11.7 min | 9.85 min | – | 11.1 min | – | 11.7 min | 10.5 min
CC(CCC(=O)O)C1CCC2C3C(O)CC4CC(O)CCC4(C)C3CCC12C (stereo not drawn) [URSODEOXYCHOLATE] | 12.2 min | – | 10.5 min | – | 10.8 min | – | –
C=C(CC(=O)O)C(=O)O [ITACONATE] | 2.44 min | 1.21 min | 1.14 min | – | 1.35 min | 2.46 min | –
CC(=CC(=O)O)C(=O)O [2-METHYLMALEATE] | 2.44 min | 0.99 min | 1.16 min | – | 1.35 min | 2.46 min | –
CCCCCCCC(=O)O [CAPRYLATE] | – | 8.82 min | – | 10 min | 9.28 min | 10.7 min | 9.52 min
Cc1cc2nc3c(=O)[nH]c(=O)nc-3n(CC(O)C(O)C(O)COP(=O)(O)OP(=O)(O)OCC3OC(n4cnc5c(N)ncnc54)C(O)C3O)c2cc1C (stereo not drawn) [FAD] | 4.67 min | – | 3.63 min | – | 3.77 min | – | –
OCc1cccc(O)c1 [3-HYDROXYBENZYL ALCOHOL] | 3.97 min | – | 2.02 min | – | 2.33 min | – | –
CCCCCCC(=O)O [HEPTANOATE] | 6.69 min | – | – | – | 5.36 min | – | –
O=C(O)CCCC(=O)C(=O)O [OXOADIPATE] | 1.48 min | 0.667 min | 0.707 min | – | 0.833 min | – | –
Nc1ccccc1C(=O)O [ANTHRANILATE] | 5.87 min | – | 3.93 min | – | 4.29 min | – | –
O=C(O)CCC(=O)O [SUCCINATE] | 1.49 min | – | 0.73 min | – | 0.827 min | – | –
CCC(C)C(=O)C(=O)O (stereo not drawn) [3-METHYL-2-OXOVALERATE] | 4.64 min | – | 2.54 min | – | 2.96 min | – | –
CCOC(=O)C(=O)C(C)C(=O)OCC (stereo not drawn) [DIETHYL 2-METHYL-3-OXOSUCCINATE] | 6.29 min | – | – | – | 4.92 min | – | –
COC(=O)c1ccc(O)c(OC)c1 [METHYL VANILLATE] | 5.99 min | – | 3.63 min | – | 3.91 min | – | –
COc1cc(C(O)C(=O)O)ccc1O (stereo not drawn) [3-METHOXY-4-HYDROXYMANDELATE] | 2.12 min | – | 1.04 min | – | 1.21 min | – | –
